{"source": "patent US7109225B2", "about": "“Substituted oxazole derivatives” (Hofmann-la Roche Inc., priority 2002, dated 2006)"}
{"units": {"melting point": "°C"}}
{"smiles": "CCOC(Cc1ccc(OCCCc2nc(C(C)(C)C)oc2CC)c2ccsc12)C(=O)O", "note": "(racemic) [Example 53, [rac]-3-{4-[3-(2-tert-Butyl-5-ethyl-oxazol-4-yl)-propoxy]-benzo[b]thiophen-7-yl}-2-ethoxy-propionic acid]", "melting point": "94 to 95"}
{"smiles": "CCOC(Cc1ccc(OCCCc2nc(C(C)(C)C)oc2C)c2ccsc12)C(=O)O", "note": "(racemic) [Example 54, [rac]-3-{4-[3-(2-tert-Butyl-5-methyl-oxazol-4-yl)-propoxy]-benzo[b]thiophen-7-yl}-2-ethoxy-propionic acid]", "melting point": "125 to 126"}
{"smiles": "Cc1oc(C(C)(C)C)nc1CCCOc1ccc(CC(OC(C)C)C(=O)O)c2ccccc12", "note": "(racemic) [Example 55, [rac]-3-{4-[3-(2-tert-Butyl-5-methyl-oxazol-4-yl)-propoxy]-naphthalen-1-yl}-2-isopropoxy-propionic acid]", "melting point": "118 to 119"}
{"smiles": "CCOC(Cc1ccc(OCCCc2nc(C(C)(C)C)oc2C)c2ccccc12)C(=O)O", "note": "(racemic) [Example 56, [rac]-3-{4-[3-(2-tert-Butyl-5-methyl-oxazol-4-yl)-propoxy]-naphthalen-1-yl}-2-ethoxy-propionic acid]", "melting point": "138 to 140"}
{"smiles": "CCCOC(Cc1ccc(OCCCc2nc(C(C)(C)C)oc2C)c2ccccc12)C(=O)O", "note": "(racemic) [Example 57, [rac]-3-{4-[3-(2-tert-Butyl-5-methyl-oxazol-4-yl)-propoxy]-naphthalen-1-yl}-2-propoxy-propionic acid]", "melting point": "140 to 141"}
{"smiles": "COC(Cc1ccc(OCCCc2nc(C(C)(C)C)oc2C)c2ccsc12)C(=O)O", "note": "(racemic) [Example 58, [rac]-3-{4-[3-(2-tert-Butyl-5-methyl-oxazol-4-yl)-propoxy]-benzo[b]thiophen-7-yl}-2-methoxy-propionic acid]", "melting point": "110 to 113"}
{"smiles": "Cc1oc(C(C)C)nc1CCCOc1ccc(CC(OC(C)C)C(=O)O)c2sccc12", "note": "(racemic) [Example 62, [rac]-2-Isopropoxy-3-{4-[3-(2-isopropyl-5-methyl-oxazol-4-yl)-propoxy]-benzo[b]thiophen-7-yl}-propionic acid]", "melting point": "125 to 126"}
{"smiles": "CCOC(Cc1ccc(OCCCc2nc(CC)oc2C)c2ccccc12)C(=O)O", "note": "(racemic) [Example 65, [rac]-2-Ethoxy-3-{4-[3-(2-ethyl-5-methyl-oxazol-4-yl)-propoxy]-naphthalen-1-yl}-propionic acid]", "melting point": "113 to 117"}
{"smiles": "CCOC(Cc1ccc(OCCc2nc(CC)oc2C)c2ccsc12)C(=O)O", "note": "(racemic) [Example 66, [rac]-2-Ethoxy-3-{4-[2-(2-ethyl-5-methyl-oxazol-4-yl)-ethoxy]-benzo[b]thiophen-7-yl}-propionic acid]", "melting point": "84 to 85"}
{"smiles": "CCOC(Cc1ccc(OCCCc2nc(C(CC)CC)oc2C)c2ccsc12)C(=O)O", "note": "(racemic) [Example 67, [rac]-2-Ethoxy-3-(4-{3-[2-(1-ethyl-propyl)-5-methyl-oxazol-4-yl]-propoxy}-benzo[b]thiophen-7-yl)-propionic acid]", "melting point": "54 to 56"}
{"smiles": "CCOC(Cc1ccc(OCCc2nc(C(CC)CC)oc2C)c2ccsc12)C(=O)O", "note": "(racemic) [Example 68, [rac]-2-Ethoxy-3-(4-{2-[2-(1-ethyl-propyl)-5-methyl-oxazol-4-yl]-ethoxy}-benzo[b]thiophen-7-yl)-propionic acid]", "melting point": "120 to 121"}
{"smiles": "CCO[C@@H](Cc1ccc(OCCc2nc(C(C)(C)C)oc2C)c2ccsc12)C(=O)O", "note": "[Example 6, (S)-3-{4-[2-(2-tert-Butyl-5-methyl-oxazol-4-yl)-ethoxy]-benzo[b]thiophen-7-yl}-2-ethoxy-propionic acid]", "melting point": "155 to 156"}
{"smiles": "C=CCCO[C@@H](Cc1ccc(OCCc2nc(C(C)(C)C)oc2C)c2ccsc12)C(=O)O", "note": "[Example 7, (S)-2-But-3-enyloxy-3-{4-[2-(2-tert-butyl-5-methyl-oxazol-4-yl)-ethoxy]-benzo[b]thiophen-7-yl}-propionic acid]", "melting point": "70 to 71"}
{"smiles": "CCOC(Cc1ccc(OCCc2nc(C(C)(C)C)oc2C)c2ccsc12)C(=O)O", "note": "(stereo not drawn) [Example 9, 3-{4-[2-(2-tert-Butyl-5-methyl-oxazol-4-yl)-ethoxy]-benzo[b]thiophen-7-yl}-2-ethoxy-propionic acid]", "melting point": "152 to 153"}
{"smiles": "COC(Cc1ccc(OCCc2nc(C(C)(C)C)oc2C)c2ccsc12)C(=O)O", "note": "(stereo not drawn) [Example 10, 3-{4-[2-(2-tert-Butyl-5-methyl-oxazol-4-yl)-ethoxy]-benzo[b]thiophen-7-yl}-2-methoxy-propionic acid]", "melting point": "163 to 165"}
{"smiles": "COC(Cc1ccc(OCCc2nc(C(C)(C)C)oc2C)c2ccccc12)C(=O)O", "note": "(stereo not drawn) [Example 13, 3-{4-[2-(2-tert-Butyl-5-methyl-oxazol-4-yl)-ethoxy]-naphthalen-1-yl}-2-methoxy-propionic acid]", "melting point": "141 to 143"}
{"smiles": "CCCOC(Cc1ccc(OCCc2nc(C(C)(C)C)oc2C)c2ccccc12)C(=O)O", "note": "(stereo not drawn) [Example 14, 3-{4-[2-(2-tert-Butyl-5-methyl-oxazol-4-yl)-ethoxy]-naphthalen-1-yl}-2-propoxy-propionic acid]", "melting point": "135 to 137"}
{"smiles": "COC(Cc1cc(C)c(OCCc2nc(C(C)(C)C)oc2C)c(C)c1)C(=O)O", "note": "(stereo not drawn) [Example 15, 3-{4-[2-(2-tert-Butyl-5-methyl-oxazol-4-yl)-ethoxy]-3,5-dimethyl-phenyl}-2-methoxy-propionic acid]", "melting point": "78 to 80"}
{"smiles": "CCOC(Cc1cc(C)c(OCCc2nc(C(C)(C)C)oc2C)c(C)c1)C(=O)O", "note": "(stereo not drawn) [Example 16, 3-{4-[2-(2-tert-Butyl-5-methyl-oxazol-4-yl)-ethoxy]-3,5-dimethyl-phenyl}-2-ethoxy-propionic acid]", "melting point": "104 to 106"}
{"smiles": "CCOC(Cc1ccc(OCc2nc(C(C)(C)C)oc2C)c2ccsc12)C(=O)O", "note": "(stereo not drawn) [Example 19, 3-[4-(2-tert-Butyl-5-methyl-oxazol-4-ylmethoxy)-benzo[b]thiophen-7-yl]-2-ethoxy-propionic acid]", "melting point": "179 to 180"}
{"smiles": "CCOC(Cc1ccc(OCc2nc(C(C)(C)C)oc2C)c(C)c1)C(=O)O", "note": "(stereo not drawn) [Example 21, 3-[4-(2-tert-Butyl-5-methyl-oxazol-4-ylmethoxy)-3-methyl-phenyl]-2-ethoxy-propionic acid]", "melting point": "95 to 97"}
{"smiles": "CCOC(Cc1ccc(OCc2nc(C(C)(C)C)oc2C)c2ccccc12)C(=O)O", "note": "(stereo not drawn) [Example 22, 3-[4-(2-tert-Butyl-5-methyl-oxazol-4-ylmethoxy)-naphthalen-1-yl]-2-ethoxy-propionic acid]", "melting point": "185 to 186"}
{"smiles": "Cc1oc(C(C)(C)C)nc1COc1ccc(CC(OC(C)C)C(=O)O)c2sccc12", "note": "(stereo not drawn) [Example 23, 3-[4-(2-tert-Butyl-5-methyl-oxazol-4-ylmethoxy)-benzo[b]thiophen-7-yl]-2-isopropoxy-propionic acid]", "melting point": "166 to 167"}
{"smiles": "CCCOC(Cc1ccc(OCc2nc(C(C)(C)C)oc2C)c2ccccc12)C(=O)O", "note": "(stereo not drawn) [Example 24, 3-[4-(2-tert-Butyl-5-methyl-oxazol-4-ylmethoxy)-naphthalen-1-yl]-2-propoxy-propionic acid]", "melting point": "169 to 170"}
{"smiles": "CCCOC(Cc1ccc(OCCc2nc(C3CCCCC3)oc2C)c2ccccc12)C(=O)O", "note": "(stereo not drawn) [Example 28, 3-{4-[2-(2-Cyclohexyl-5-methyl-oxazol-4-yl)-ethoxy]-naphthalen-1-yl}-2-propoxy-propionic acid]", "melting point": "106 to 107"}
{"smiles": "CCOC(Cc1ccc(OCc2nc(C3CC3)oc2C)c2ccccc12)C(=O)O", "note": "(stereo not drawn) [Example 38, 3-[4-(2-Cyclopropyl-5-methyl-oxazol-4-ylmethoxy)-naphthalen-1-yl]-2-ethoxy-propionic acid]", "melting point": "166 to 168"}
{"smiles": "Cc1oc(C2CC2)nc1COc1ccc(CC(OC(C)C)C(=O)O)c2ccccc12", "note": "(stereo not drawn) [Example 40, 3-[4-(2-Cyclopropyl-5-methyl-oxazol-4-ylmethoxy)-naphthalen-1-yl]-2-isopropoxy-propionic acid]", "melting point": "129 to 130"}
{"smiles": "CCCOC(Cc1ccc(OCc2nc(C3CC3)oc2C)c2ccsc12)C(=O)O", "note": "(stereo not drawn) [Example 41, 3-[4-(2-Cyclopropyl-5-methyl-oxazol-4-ylmethoxy)-benzo[b]thiophen-7-yl]-2-propoxy-propionic acid]", "melting point": "88 to 89"}
{"smiles": "Cc1oc(C2CC2)nc1COc1ccc(CC(OC(C)C)C(=O)O)c2sccc12", "note": "(stereo not drawn) [Example 42, 3-[4-(2-Cyclopropyl-5-methyl-oxazol-4-ylmethoxy)-benzo[b]thiophen-7-yl]-2-isopropoxy-propionic acid]", "melting point": "71 to 72"}
{"smiles": "CCOC(Cc1ccc(OCc2nc(C3CC3)oc2C)c2ccsc12)C(=O)O", "note": "(stereo not drawn) [Example 43, 3-[4-(2-Cyclopropyl-5-methyl-oxazol-4-ylmethoxy)-benzo[b]thiophen-7-yl]-2-ethoxy-propionic acid]", "melting point": "153 to 154"}
